# Laboratory results published in US20090232786A1, “HERBAL COMPOSITION FOR CANCER TREATMENT” (priority 2001, published 2009).
# What was measured:
# [1] = test system: Prostaglandin E2 (PGE2) production in a mouse 3T3 fibroblast cell line; assay: Anti-inflammatory assay: secreted PGE2 from stimulated 3T3 fibroblasts; format: cell-based; settings: 3T3 cells, 500 μM, dilution 500
# Text: This assay was run to determine the effectiveness of the herbal formula to inhibit Prostaglandin E2 (PGE2) production in a mouse 3T3 fibroblast cell line.
# The anti-inflammatory assay measures the level of PGE2 in stimulated mouse fibroblast 3T3 cell line after treatment with the herbal formula. The use of a stimulated cell line rather than using isolated enzyme systems gives more useful data.
# PGE2 is formed in a variety of cells from PGH2, which itself is synthesized from arachiodonic acid by the enzyme prostaglandin synthetase. The assay measures secreted levels of PGE2 from the supernatant of the fibroblast cells.
# [2] = target: T1, estrogen (E2) binding site on MCF-7 cell lines (Homo sapiens, UniProt P03372); assay: Estrogen binding assay, 3H 17-β-estradiol displacement; settings: MCF-7, 197 μM, 1 nM 3H E2, 3 hours
# T1 construct: endogenous in cells; host or cells: MCF-7 breast cancer cells
# T1 sequence (P03372 1-595): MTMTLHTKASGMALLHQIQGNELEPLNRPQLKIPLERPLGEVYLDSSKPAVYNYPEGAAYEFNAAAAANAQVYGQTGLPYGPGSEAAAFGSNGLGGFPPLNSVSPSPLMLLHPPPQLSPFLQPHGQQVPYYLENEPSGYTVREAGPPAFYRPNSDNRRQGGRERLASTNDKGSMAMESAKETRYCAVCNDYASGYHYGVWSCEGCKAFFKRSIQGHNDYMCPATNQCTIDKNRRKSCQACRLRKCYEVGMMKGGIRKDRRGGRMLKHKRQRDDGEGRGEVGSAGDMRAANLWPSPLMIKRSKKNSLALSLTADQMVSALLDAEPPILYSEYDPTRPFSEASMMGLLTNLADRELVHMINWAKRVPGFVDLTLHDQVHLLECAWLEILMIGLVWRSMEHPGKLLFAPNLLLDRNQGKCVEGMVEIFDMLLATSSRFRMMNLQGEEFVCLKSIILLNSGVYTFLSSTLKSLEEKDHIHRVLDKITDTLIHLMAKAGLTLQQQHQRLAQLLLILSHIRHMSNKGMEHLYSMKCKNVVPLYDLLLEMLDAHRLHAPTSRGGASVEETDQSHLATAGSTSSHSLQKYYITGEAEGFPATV
# Experimental: The estrogen binding capacity of the herbal formula was investigated by assay. This assay was developed and run to determine if the herbal extracts that constitute the herbal formula have any binding activity towards the estrogen (E2) binding site on MCF-7 cell lines. The MCF-7 is a breast cancer cell line and was chosen because of the ability to express E2 binding sites.
# ^3H 17-β-estradiol (E2) was used at a final concentration in the wells of 1 nM in media. Samples were incubated for 3 hours after which the wells were aspirated and washed 3 times with warm PBS. Cell bound radioactivity was extracted with 300 μL EtOH which was added to each well and left to lyse for 20 min at room temperature. An aliquot was removed for counting, transferred to a counting plate and scintillant added and the plate counted in a Perkin Elmer MicroBeta.
# [3] = test system: serum PSA; assay: Patient case studies: serum PSA; format: in vivo, human; settings: Example 11; Casodex 50 mg once daily for three months; PSA before 41
# Experimental: Serum PSA was measured to be 300. This patient then started hormone therapy including an oral administration of 100 mg of Androcur (Cyproterone Acetate) 3 times per day, and a subcutaneous injection of 3.6 mg of Zolodex (Goserelin Acetate Implant) once per three months. The prostate has been monitored since with serum PSA levels, varying between “28-62”.
# In May 2001, the PSA level was measured to be 41. At that time, the patient stopped taking Androcur and Zolodex, and started to take Casodex 50 mg once daily. The treatment with Casodex continued for three months and follow-up blood tests indicated a serum PSA of 5.7.
# From August 2001, this patient started to combine Casodex with an oral administration of the herbal formula of the present invention. The intake dosage of the herbal formula was 2070 mg per day. This combination treatment continued for two months.
# From October 2001, the dosage of this herb formula was increased to 2760 mg per day. Following PSA level measurement was 2.3 in November 2001.
# The patient in this case study was a person. […] The PSA was measured to be 21.
# The prostate has been monitored approximately every 6 months. As the PSA reading was between “13-17” on occasions, when readings were high, antibiotics were prescribed for prostatitis. The PSA was measured to be 18.7 at August of 2001. […]
# [4] = test system: PC-3 cell lines; assay: PC3 cell cycle analysis by flow cytometry of propidium iodide stained cells; format: cell-based; settings: PC-3, paclitaxol 10 ng/mL (FIG. 3)
# Experimental: Cell cycle analysis was carried out using tablets/capsules of the present invention. The formulation was tested as a single tablet/capsule concentration in triplicate and as a two capsule concentration also in triplicate.
# Tablets/capsules were weighed, crushed and extracted with 10 ml of methanol. The extracts were sonicated for 40 mins and then spun down at 4000 rpm. The supernatant was removed and 100 μL of this extract was used in the cell cycle analysis. A further aliquot of this extract was subjected to HPLC-MS analysis as described in Example 3 below. Cells were split into 16×25 cm^2 flasks at a low concentration and allowed to grow to 65-70% confluence (at the time of addition the cells were in log phase). Flasks were incubated for 24 hours and control flasks of control media (no additions), an ethanol (100 μL EtOH), a control methanol (100 μL MeOH) and paclitaxol (10 μL of 0.01 mg/mL=10 ng/mL) were also run.
# Flow cytometry was performed on the fixed cells after washing in PBS and stained using propidium iodide (2% PI in 0.1% Triton X-100 containing 2 mg/mL Rnase A). A Becton Dickson FACSCaliber was used to assay the cells.
# [5] = test system: HL60 cell lines; assay: HL60 cell cycle assay; format: cell-based, human; settings: HL60, positive control (FIG. 10)
# Experimental: The bioactivity of the herb formula was assessed using HL60 cell lines. HL60 is a human promyelocytic leukemia cell line.
# [6] = test system: LNCap cell lines; assay: LNCap cell cycle assay; format: cell-based; settings: positive control (FIG. 7)
# Experimental: A anti-cancer activity assay was conducted with the results presented in Table 3 wherein the herb formula represents a combination according to the present invention. LNCap is an androgen-dependent prostate cancer cell line.
smiles,measurement,setting,value
CC(=O)Oc1ccccc1C(=O)O [Aspirin],% Control (secreted PGE2),[1],14.2%
O=c1c(-c2ccc(O)cc2)coc2cc(O)ccc12 [diadzein],displacement of 3H E2 from the E2 receptor,[2],> 60%
CC(O)(CS(=O)(=O)c1ccc(F)cc1)C(=O)Nc1ccc(C#N)c(C(F)(F)F)c1 (centres unmarked) [Casodex],serum PSA,[3],5.7
CC(=O)O[C@H]1C(=O)[C@@]2(C)[C@H]([C@H](OC(=O)c3ccccc3)[C@]3(O)C[C@H](OC(=O)[C@H](O)[C@@H](NC(=O)c4ccccc4)c4ccccc4)C(C)=C1C3(C)C)[C@]1(OC(C)=O)CO[C@@H]1C[C@@H]2O [Paclitaxol],cells in the G0-G1 phase,[4],1.16%
same,cells in the G2-M phase,[4],71.89%
same,cells in the S phase,[4],26.95%
same,effect on the cell cycle,[5],arrest the cells in the G2-M stage
same,effect on the cell cycle,[6],arresting of cells in G2-M
